Assay results reported in PMC7187165, “Structure‐Based Design, Synthesis, and Biological Evaluation of Triazole‐Based smHDAC8 Inhibitors” (Chemmedchem, 2020).

Legend:
[1] = target: T1, hsHDAC1 (Homo sapiens, UniProt Q13547); design: method as in PMID 24086136, PMID 26013035; settings: @ 10 μM; SAHA row of Table 3; cited from earlier work
[2] = target: T2, smHDAC8 (Schistosoma mansoni, UniProt A5H660); test: biochemical; assay type: biochemical; settings: @ 10 μM; pretest n=1; read-out: smHDAC8 (% inhibition, Fluor de Lys)
T2 construct: made in house; host or cells: E. coli
T2 sequence (A5H660 1-440): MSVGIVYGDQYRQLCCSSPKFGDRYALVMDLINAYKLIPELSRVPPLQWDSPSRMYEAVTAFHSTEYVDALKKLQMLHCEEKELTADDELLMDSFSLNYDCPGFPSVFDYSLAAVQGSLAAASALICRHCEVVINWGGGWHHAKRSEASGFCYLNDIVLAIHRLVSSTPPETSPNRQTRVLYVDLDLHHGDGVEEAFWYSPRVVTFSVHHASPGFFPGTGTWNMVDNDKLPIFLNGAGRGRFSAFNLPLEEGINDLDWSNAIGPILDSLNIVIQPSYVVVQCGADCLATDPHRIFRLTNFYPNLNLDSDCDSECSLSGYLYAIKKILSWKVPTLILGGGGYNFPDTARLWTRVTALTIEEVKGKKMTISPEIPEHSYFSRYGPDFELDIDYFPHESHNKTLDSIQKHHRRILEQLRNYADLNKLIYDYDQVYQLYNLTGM

[3] = target: T1, hsHDAC1; test: In vitro hsHDAC1 inhibition (ZMAL substrate, trypsin developer); assay type: biochemical; settings: read-out: hsHDAC1 (% inhibition, ZMAL)

T1 sequence (Q13547 whole entry): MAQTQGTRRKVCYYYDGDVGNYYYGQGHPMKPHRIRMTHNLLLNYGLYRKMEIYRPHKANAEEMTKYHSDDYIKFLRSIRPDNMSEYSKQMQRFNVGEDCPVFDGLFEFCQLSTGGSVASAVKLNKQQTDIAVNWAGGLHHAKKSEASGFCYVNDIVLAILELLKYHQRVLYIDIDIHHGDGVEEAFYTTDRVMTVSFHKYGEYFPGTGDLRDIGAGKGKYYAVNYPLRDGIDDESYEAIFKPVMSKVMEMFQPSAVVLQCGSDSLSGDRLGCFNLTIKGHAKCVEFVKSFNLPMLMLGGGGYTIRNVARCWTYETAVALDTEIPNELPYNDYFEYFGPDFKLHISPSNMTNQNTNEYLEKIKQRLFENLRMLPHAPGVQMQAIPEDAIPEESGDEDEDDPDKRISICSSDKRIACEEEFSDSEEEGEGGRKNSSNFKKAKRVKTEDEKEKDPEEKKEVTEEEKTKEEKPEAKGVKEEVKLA

## O=C(CCCCCCC(=O)Nc1ccccc1)NO [SAHA (1), SAHA, reference compound]
[1]
  hsHDAC1 % inhibition (ZMAL): 0.117±0.0056 97.3±1.3 % @ 10 μM
[2]
  inhibition at 10 µM: 72%
[3]
  inhibition at 10 µM: 97.3 ± 1.3%
